Values quoted from earlier work as cited in publication PMC4654502, “Early Gelatinase Activity Is Not a Determinant of Long-Term Recovery after Traumatic Brain Injury in the Immature Mouse” (PLoS ONE, 2015).

Columns and labels:
HI in p7 rat pups = conditions: cited from earlier work
[1] = test system: adult models of ischemic stroke; design: method as in PMID 22587708; conditions: cited from earlier work
[2] = test system: fluid-percussion injury in adult rats; conditions: cited from earlier work
TBI in adult mice = conditions: 25 mg/kg; cited from earlier work
HI injury in rats at p21 = test system: HI injury in rats at p21; design: method as in PMID 23171520; conditions: i.p. 50 mg/kg at 30 min, 6 h and 12 h after HI; cited from earlier work

| SMILES | acute cell death after HI (HI in p7 rat pups) | ipsilateral brain tissue loss after HI (HI in p7 rat pups) | behavioral and cognitive consequences of ischemic stroke [1] | infarct volumes [1] | behavioral and cognitive deficits after TBI [2] | hippocampal neurons after TBI [2] | functional and neuropathological outcomes after TBI in adult mice (TBI in adult mice) | neuroprotection after HI injury (HI injury in rats at p21) | pro-MMP-9 after acute treatment (HI injury in rats at p21) |
| --- | --- | --- | --- | --- | --- | --- | --- | --- | --- |
| CNC(=O)[C@H](Cc1c[nH]c2ccccc12)NC(=O)[C@@H](CC(=O)NO)CC(C)C [GM6001] | amelioration of acute cell death | preservation of ipsilateral brain tissue loss | – | – | – | – | – | – | – |
| O=S(=O)(CC1CS1)c1ccc(Oc2ccccc2)cc1 (stereo not drawn) [SB-3CT] | – | – | ameliorate behavioral and cognitive consequences | reduce infarct volumes | rescued behavioral and cognitive deficits | preserved hippocampal neurons | effective at improving functional and neuropathological outcomes | failed to render significant neuroprotection | a reduction in pro-MMP-9 |
